From patent publication EP3398601A1, “NICOTINAMIDE FOR TREATING DYSLIPIDEMIA” (priority 2017, dated 2018)
Entries after “also recorded” stand apart in the source; their conditions may differ.

Assays:
NaPi2b [1] = assay: Intestinal (ileum) NaPi2b expression, immune fluorescence and RNA, in 5/6 nephrectomized DBA/2 mice; assay type: in vivo, DBA/2 mouse
Method: Further, the effect of nicotinamide treatment on intestinal NaPi2b protein expression in a mouse model (DBA/2 mouse) was investigated.
(§1) For this purpose, 5/6 nephrectomized DBA/2 mice were used as model for vascular calcification. The mice were treated with nicotinamide (NA) in a concentration of 600 µg/mL in the drinking water.
Bars between columns indicate significant between groups differences (ANOVA with Tukey Post Test, p<0.05).

[2] = S-phosphate and fractional phosphate elimination in DBA/2 mice; assay type: in vivo; settings: for fractional phosphate elimination (in words): DBA/2 mice
Method: as §1

FGF23 = FGF23 in DBA/2 mice; assay type: in vivo
Method: as §1

NaPi2b [3] = assay: Renal NaPi2b protein expression, immune fluorescence, in 5/6 nephrectomized DBA/2 mice; settings: 5/6 nephrectomized DBA/2 mice (CKD); Fig. 4
GPR109A receptor = GPR109A receptor (Homo sapiens, UniProt Q8TDS4); settings: cited from earlier work
[4] = given in combination with the phosphate binder sevelamer; cited from earlier work
NaPi2b [5] = settings: intraperitoneal administration; cited from earlier work
[6] = intraperitoneal administration; cited from earlier work
Lp(a) [7] = assay: Lp(a) plasma levels (Apo(a) ELISA) in transgenic Apo(a) mice given the substance in chow, cross-over design; settings: for reduction of Lp(a): 1% orally as food supplement, compared to baseline levels
Method: In the transgenic Apo(a) mice (tg-Apo(a)) Apo(a) is expressed mainly in female mice.
Levels of Apo(a) were determined by means of ELISA and were expressed as Lp(a) in mg/dl as each molecule Apo(a) binds one molecule of LDL to form Lp(a).

Apo(a) = settings: oral treatment with 1% nicotinic acid in the chow; female tg-Apo(a) mice; cited from earlier work
Lp(a) [8] = settings: literature values (Carlson, 1989; Kotani, 2017); cited from earlier work

Sequence of GPR109A receptor (Q8TDS4 whole entry): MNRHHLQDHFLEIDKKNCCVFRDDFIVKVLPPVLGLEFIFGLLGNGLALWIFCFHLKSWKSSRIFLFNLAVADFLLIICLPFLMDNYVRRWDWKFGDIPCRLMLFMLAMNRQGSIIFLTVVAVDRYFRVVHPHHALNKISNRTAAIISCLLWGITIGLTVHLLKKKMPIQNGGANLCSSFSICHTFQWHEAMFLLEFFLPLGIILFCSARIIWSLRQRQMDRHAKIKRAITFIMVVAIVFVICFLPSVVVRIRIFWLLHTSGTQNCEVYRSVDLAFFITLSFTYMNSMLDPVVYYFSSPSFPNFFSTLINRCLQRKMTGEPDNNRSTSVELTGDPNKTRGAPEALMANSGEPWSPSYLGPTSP

Compound: O=C(O)O [magnesium carbonate]
- intestinal NaPi2b protein / cotransporter content of the small intestine (in words) (NaPi2b [1]; 5/6 nephrectomized DBA/2 mice, NA 600 µg/mL in the drinking water, Fig. 3): strongly enhances
- intestinal NaPi2b protein / cotransporter content of the small intestine (in words) (NaPi2b [1]; 5/6 nephrectomized DBA/2 mice, NA 600 µg/mL in the drinking water, Fig. 3, listed as Mg): notable increase
- intestinal NaPi2b protein / cotransporter content of the small intestine (in words) (NaPi2b [1]; 5/6 nephrectomized DBA/2 mice, NA 600 µg/mL in the drinking water, Fig. 3, listed as magnesium carbonate (Mg)): strong enhancement
- increase of cotransporter expression (intestinal NaPi2b) (NaPi2b [1]; 5/6 nephrectomized DBA/2 mice, treatment for 7 weeks, Fig. 3): 10 -fold
- fractional phosphate elimination (in words) [2]: reduction
- FGF23 (in words) (FGF23): reduction
- renal NaPi2b protein expression (in words) (NaPi2b [3]): no significant difference compared to baseline; also recorded: no significant effects

Compound: NC(=O)c1cccnc1 [nicotinamide]
- NaPi2b-RNA of the small intestine (in words) (NaPi2b [1]; DBA/2 mice, NA 600 µg/mL in the drinking water): did not show any influence
- fractional phosphate elimination (in words) [2]: reduction
- S-phosphate (in words) ([2]; effect only in healthy DBA/2 mice with high phosphate diet (phosphorus content 1.03 % (w/w)), NA 600 µg/mL in the drinking water): decrease
- FGF23 (in words) (FGF23): reduction
- binding to GPR109A receptor (in words) (GPR109A receptor): does not bind or otherwise affect
- treatment of hyperphosphatemia (in words) [4]: ineffective
- expression of NaPi2b (in words) (NaPi2b [5]): blocks
- gastrointestinal absorption of phosphate (in words) [6]: inhibits
- reduction of Lp(a) (Lp(a) [7]; after two weeks of treatment): 77%
- reduction of Lp(a) (Lp(a) [7]; after week 1): 67%
- Lp(a) plasma levels lower compared to nicotinic acid (Lp(a) [7]; after 2 weeks of treatment, Fig. 1 legend): more than 50%

Compound: O=C(O)c1cccnc1 [nicotinic acid]
- reduction in plasma Apo(a) protein (Apo(a)): 43%
- reduces Lp(a) (Lp(a) [8]): up to 35%
- reduction of Lp(a) (Lp(a) [7]; after two weeks of treatment): 50%
- reduction of Lp(a) (Lp(a) [7]; after week 1): 37%
